According to patent US20230348369A1 (Cytokinetics, Inc., priority 2020, published 2023):
pEC50: −log10 of the molar value. Where two headings read alike, the source gives them in different places.

Molecular target: human NAMPT (Homo sapiens, UniProt P43490)
Test: Human recombinant enzyme assay (NMN fluorescence biochemical assay, activation of NAMPT)
Procedure, shortened: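 NMN production is detected fluorometrically (Ex 355/Em 460 nm) 40 min after acetophenone, KOH and formic acid derivatization. Reactions ran 60 min at ambient temperature: 6 nM human NAMPT, nicotinamide 150 μM, PRPP 20 μM, ATP 2.5 mM, buffered at pH 7.2 with 50 mM HEPES plus DTT, CHAPS, NaCl and 100 mM MgCl2.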

[1] = Table A, human recombinant NAMPT, NMN formation, 60 min
[2] = Table A, human recombinant NAMPT, NMN formation, 60 min, read-out: EC50 Human

Sequence of human NAMPT (P43490 whole entry): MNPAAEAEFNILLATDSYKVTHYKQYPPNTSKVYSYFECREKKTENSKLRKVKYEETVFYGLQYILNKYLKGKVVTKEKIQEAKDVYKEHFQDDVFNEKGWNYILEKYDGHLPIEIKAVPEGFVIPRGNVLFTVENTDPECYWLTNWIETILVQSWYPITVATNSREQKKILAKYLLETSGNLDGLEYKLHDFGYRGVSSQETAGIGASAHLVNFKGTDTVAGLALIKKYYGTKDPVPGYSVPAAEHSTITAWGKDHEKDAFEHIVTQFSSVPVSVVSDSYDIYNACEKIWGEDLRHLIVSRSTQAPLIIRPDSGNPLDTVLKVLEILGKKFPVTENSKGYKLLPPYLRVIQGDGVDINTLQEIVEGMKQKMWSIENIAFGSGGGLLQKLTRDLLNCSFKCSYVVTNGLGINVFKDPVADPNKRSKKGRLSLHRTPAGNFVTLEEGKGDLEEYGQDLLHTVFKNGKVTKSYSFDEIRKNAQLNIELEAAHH

| Structure (SMILES) | AC1.4 Human [1] | pEC50 [2] | pEC50 |
| --- | --- | --- | --- |
| COc1ccc(CNC(=O)NC2CC3(C2)CC(C(=O)N2CCN(C(C)C)CC2)C3)cc1 (stereo not drawn) [Compound 122, 1-(6-(4-isopropylpiperazine-1-carbonyl)spiro[3.3]heptan-2-yl)-3-(4-methoxybenzyl)urea] | 5.9 µM | 4.32 |  |
| COc1ccc(CNC(=O)NC2CC3(C2)CC(C(=O)N2CCN(Cc4cnn(C)c4)CC2)C3)cc1 (stereo not drawn) [Compound 123, 1-(4-methoxybenzyl)-3-(6-(4-((1-methyl-1H-pyrazol-4-yl)methyl)piperazine-1-carbonyl)spiro[3.3]heptan-2-yl)urea] | 2.8 µM | 4.29 |  |
| COc1ccc(CNC(=O)NC2CC3(C2)CC(C(=O)N2CCN(Cc4ccncc4)CC2)C3)cc1 (stereo not drawn) [Compound 124, 1-(4-methoxybenzyl)-3-(6-(4-(pyridin-4-ylmethyl)piperazine-1-carbonyl)spiro[3.3]heptan-2-yl)urea] | 1.3 µM | 4.60 |  |
| COc1ccc(CNC(=O)NC2CC3(C2)CC(C(=O)N2CCN(Cc4ccccn4)CC2)C3)cc1 (stereo not drawn) [Compound 125, 1-(4-methoxybenzyl)-3-(6-(4-(pyridin-2-ylmethyl)piperazine-1-carbonyl)spiro[3.3]heptan-2-yl)urea] | 7.9 µM | 4.29 |  |
| COc1ccc(CNC(=O)NC2CC3(CC(CN4CCCc5c(F)cc(F)cc54)C3)C2)cc1 (stereo not drawn) [Compound 127, 1-(6-((5,7-difluoro-3,4-dihydroquinolin-1(2H)-yl)methyl)spiro[3.3]heptan-2-yl)-3-(4-methoxybenzyl)urea] | 1.4 µM | 4.48 |  |
| COc1ccc(CNC(=O)NC2CC3(C2)CN(S(=O)(=O)C2CC4CCC2C4)C3)cc1 (stereo not drawn) [Compound 130, 1-(2-(bicyclo[2.2.1]heptan-2-ylsulfonyl)-2-azaspiro[3.3]heptan-6-yl)-3-(4-methoxybenzyl)urea] | 18.1 µM | 4.32 |  |
| COC(=O)C1CCC(S(=O)(=O)N2CC3(CC(NC(=O)NCc4ccc(OC)cc4)C3)C2)CC1 (stereo not drawn) [Compound 131, methyl 4-((6-(3-(4-methoxybenzyl)ureido)-2-azaspiro[3.3]heptan-2-yl)sulfonyl)cyclohexane-1-carboxylate] | 17.6 µM | 4.31 |  |
| COc1ccc(CNC(=O)NC2CC3(C2)CN(C(=O)Nc2cccc(C#N)n2)C3)cc1 [Compound 132, N-(6-cyanopyridin-2-yl)-6-(3-(4-methoxybenzyl)ureido)-2-azaspiro[3.3]heptane-2-carboxamide] | 15.0 µM |  | 4.37 |
| COc1ccc(CNC(=O)NC2CC3(C2)CN(C(=O)Nc2cnc(C)nc2)C3)cc1 [Compound 133, 6-(3-(4-methoxybenzyl)ureido)-N-(2-methylpyrimidin-5-yl)-2-azaspiro[3.3]heptane-2-carboxamide] | 17.5 µM | 4.21 |  |
| COc1ccc(CNC(=O)NC2CC3(C2)CN(C(=O)CCc2ccccc2Cl)C3)cc1 [Compound 135, 1-(2-(3-(2-chlorophenyl)propanoyl)-2-azaspiro[3.3]heptan-6-yl)-3-(4-methoxybenzyl) urea] | 3.7 µM |  | 4.41 |
| COc1ccc(CNC(=O)NC2CC3(C2)CN(C(=O)C2CCCN(C(=O)OC(C)(C)C)C2)C3)cc1 (stereo not drawn) [Compound 136, tert-butyl 3-(6-(3-(4-methoxybenzyl)ureido)-2-azaspiro[3.3]heptane-2-carbonyl)piperidine-1-carboxylate] | 9.8 µM | 4.24 |  |
| COc1ccc(CNC(=O)NC2CC3(C2)CN(C(=O)c2ccc(=O)n(C)c2)C3)cc1 [Compound 144, 1-(4-methoxybenzyl)-3-(2-(1-methyl-6-oxo-1,6-dihydropyridine-3-carbonyl)-2-azaspiro[3.3]heptan-6-yl)urea] | 16.0 µM | 4.27 |  |
| COc1ccc(CNC(=O)NC2CC3(C2)CN(C(=O)c2ccc(C(F)(F)F)cc2)C3)cc1 [Compound 147, 1-(4-methoxybenzyl)-3-(2-(4-(trifluoromethyl)benzoyl)-2-azaspiro[3.3]heptan-6-yl)urea] | 5.8 µM | 4.24 |  |
| COc1ccc(CNC(=O)NCCCCCCOc2ccccc2)cc1 [Compound 150, 1-(4-methoxybenzyl)-3-(6-phenoxyhexyl)urea] | 2.0 µM | 5.28 |  |
| CC(C)(C)OC(=O)N1CC[C@]2(C1)C[C@@H](NC(=O)NCc1ccc(Cl)cc1)C2 [Compound 151, tert-butyl (2r,4s)-2-(3-(4-chlorobenzyl)ureido)-6-azaspiro[3.4]octane-6-carboxylate] | 6.8 µM | 4.39 |  |
| CC(C)(C)OC(=O)N1CC[C@]2(C1)C[C@H](NC(=O)NCc1ccc(Cl)cc1)C2 [Compound 152, tert-butyl (2s,4r)-2-(3-(4-chlorobenzyl)ureido)-6-azaspiro[3.4]octane-6-carboxylate] | 7.9 µM | 4.42 |  |
| COc1ccc(CNC(=O)NC2CC3(C2)CN(C(=O)c2ccc(C(C)(C)O)cc2)C3)cc1 [Compound 157, 1-(2-(4-(2-hydroxypropan-2-yl)benzoyl)-2-azaspiro[3.3]heptan-6-yl)-3-(4-methoxybenzyl)urea] | 4.1 µM | 4.32 |  |
| Cc1ccc(C(=O)N2CC[C@]3(C2)C[C@@H](NC(=O)NCc2ccc(Cl)cc2)C3)cc1 [Compound 159, 1-(4-chlorobenzyl)-3-((2r,4s)-6-(4-methylbenzoyl)-6-azaspiro[3.4]octan-2-yl)urea] | 8.7 µM | 4.64 |  |
| Cc1cc(C(=O)N2CC[C@]3(C2)C[C@@H](NC(=O)NCc2ccc(Cl)cc2)C3)ccn1 [Compound 160, 1-(4-chlorobenzyl)-3-((2r,4s)-6-(2-methylisonicotinoyl)-6-azaspiro[3.4]octan-2-yl)urea] | 13.6 µM | 4.37 |  |

The next lines start with results.

| AC1.4 Human [1] | pEC50 [2] | Structure (SMILES) | pEC50 |
| --- | --- | --- | --- |
| 0.6 µM | 4.68 | COc1ccc(CNC(=O)NC2CC3(CC(CN4CCc5ccccc54)C3)C2)cc1 (stereo not drawn) [Compound 128, 1-(6-(indolin-1-ylmethyl)spiro[3.3]heptan-2-yl)-3-(4-methoxybenzyl)urea] |  |
| 7.3 µM | 4.52 | COc1ccc(CNC(=O)NC2CC3(CC(CN4Cc5ccccc5C4)C3)C2)cc1 (stereo not drawn) [Compound 129, 1-(6-(isoindolin-2-ylmethyl)spiro[3.3]heptan-2-yl)-3-(4-methoxybenzyl)urea] |  |
| 13.8 µM | 4.27 | COc1ccc(CNC(=O)NC2CC3(C2)CN(C(=O)C2CCCc4ccccc42)C3)cc1 (stereo not drawn) [Compound 137, 1-(4-methoxybenzyl)-3-(2-(1,2,3,4-tetrahydronaphthalene-1-carbonyl)-2-azaspiro[3.3]heptan-6-yl)urea] |  |
| 16.4 µM | 4.35 | COc1ccc(CNC(=O)NC2CC3(C2)CN(C(=O)c2ccncc2)C3)cc1 [Compound 139, 1-(2-isonicotinoyl-2-azaspiro[3.3]heptan-6-yl)-3-(4-methoxybenzyl)urea] |  |
| 4.7 µM | 4.31 | COc1ccc(CNC(=O)NC2CC3(C2)CN(C(=O)c2ccccc2)C3)cc1 [Compound 141, 1-(2-benzoyl-2-azaspiro[3.3]heptan-6-yl)-3-(4-methoxybenzyl)urea] |  |
| 1.8 µM | 4.48 | COc1ccc(CNC(=O)NC2CC3(C2)CN(C(=O)C(C)(C)c2ccccc2)C3)cc1 [Compound 142, 1-(4-methoxybenzyl)-3-(2-(2-methyl-2-phenylpropanoyl)-2-azaspiro[3.3]heptan-6-yl)urea] |  |
| 8.0 µM | 4.34 | COc1ccc(CNC(=O)NC2CC3(C2)CN(C(=O)C2(c4ccccc4)CC2)C3)cc1 [Compound 143, 1-(4-methoxybenzyl)-3-(2-(1-phenylcyclopropane-1-carbonyl)-2-azaspiro[3.3]heptan-6-yl)urea] |  |
| 4.1 µM | 4.41 | COc1ccc(CNC(=O)NC2CC3(C2)CN(C(=O)c2cccc(C)c2)C3)cc1 [Compound 146, 1-(4-methoxybenzyl)-3-(2-(3-methylbenzoyl)-2-azaspiro[3.3]heptan-6-yl)urea] |  |
| 3.9 µM | 4.33 | COc1ccc(CNC(=O)NC2CC3(C2)CN(C(=O)c2ccccc2C)C3)cc1 [Compound 148, 1-(4-methoxybenzyl)-3-(2-(2-methylbenzoyl)-2-azaspiro[3.3]heptan-6-yl)urea] |  |
| 2.3 µM | 4.58 | COc1ccc(CNC(=O)NC2CC3(C2)CN(C(=O)C(C)(C)c2ccc(C)cc2)C3)cc1 [Compound 153, 1-(4-methoxybenzyl)-3-(2-(2-methyl-2-(p-tolyl)propanoyl)-2-azaspiro[3.3]heptan-6-yl)urea] |  |
| 2.1 µM | 4.51 | COc1ccc(CNC(=O)NC2CC3(C2)CN(C(=O)C(C)(C)c2cccc(C)c2)C3)cc1 [Compound 154, 1-(4-methoxybenzyl)-3-(2-(2-methyl-2-(m-tolyl)propanoyl)-2-azaspiro[3.3]heptan-6-yl)urea] |  |
| 2.7 µM | 4.28 | COc1ccc(CNC(=O)NC2CC3(C2)CN(C(=O)c2ccc(OC)cc2)C3)cc1 [Compound 155, 1-(2-(4-methoxybenzoyl)-2-azaspiro[3.3]heptan-6-yl)-3-(4-methoxybenzyl)urea] |  |
| 11.0 µM | 4.34 | COc1ccc(CNC(=O)NC2CC3(C2)CN(C(=O)c2ccc(C#N)cc2)C3)cc1 [Compound 156, 1-(2-(4-cyanobenzoyl)-2-azaspiro[3.3]heptan-6-yl)-3-(4-methoxybenzyl)urea] |  |
| 2.7 µM | 4.41 | COc1ccc(CNC(=O)NC2CC3(C2)CN(C(=O)c2ccc(Cl)cc2)C3)cc1 [Compound 158, 1-(2-(4-chlorobenzoyl)-2-azaspiro[3.3]heptan-6-yl)-3-(4-methoxybenzyl)urea] |  |
